Data from the NIST ThermoML archive (doi:10.1021/acs.jced.8b00157).
Values joined by “and” are separate entries in the source; they are usually repeats but may differ in a detail not shown here. Equal entries are not always repeated. Numbers after ± are expanded uncertainties.

Experiment: an = ratio of the nth substance listed
Details: 100 kPa, Liquid, Buoyancy - hydrostatic balance, a2 = 1.3

`[F][Al]([F])[F]` [aluminum fluoride] + [F-].[K+] showed a mass density (991.02 K) of 1842 ± 10 kg/m3, a mass density (991.03 K) of 1841 ± 10 kg/m3 and a mass density (991.17 K) of 1842 ± 10 kg/m3. For the same compound, the mass density (991.49 K) was 1841 ± 10 kg/m3, the mass density (992.13 K) was 1841 ± 10 kg/m3 and the mass density (992.28 K) was 1840 ± 10 kg/m3. It also gave a mass density (992.47 K) of 1841 ± 10 kg/m3, a mass density (992.66 K) of 1842 ± 10 kg/m3 and a mass density (992.84 K) of 1842 ± 10 kg/m3. For the same compound, the mass density (993.1 K) was 1842 ± 10 kg/m3, the mass density (993.15 K) was 1840 ± 10 kg/m3 and the mass density (993.49 K) was 1839 ± 10 kg/m3. The mass density (993.5 K) was 1840 ± 10 kg/m3, the mass density (993.57 K) was 1841 ± 10 kg/m3 and the mass density (993.62 K) was 1840 ± 10 kg/m3. The mass density (993.79 K) was 1839 ± 10 kg/m3, the mass density (993.81 K) was 1841 ± 10 kg/m3 and the mass density (993.83 K) was 1841 ± 10 kg/m3. The mass density (994.35 K) was 1838 ± 10 kg/m3, the mass density (994.37 K) was 1839 ± 10 kg/m3 and the mass density (994.52 K) was 1838 ± 10 kg/m3. It also gave a mass density (994.62 K) of 1840 ± 10 kg/m3, a mass density (995.21 K) of 1838 ± 10 kg/m3 and a mass density (995.25 K) of 1840 ± 10 kg/m3. The mass density (995.47 K) was 1840 ± 10 kg/m3, the mass density (995.64 K) was 1840 ± 10 kg/m3 and the mass density (995.66 K) was 1838 ± 10 kg/m3. The mass density (996.05 K) was 1838 ± 10 kg/m3, the mass density (996.18 K) was 1839 ± 10 kg/m3 and the mass density (996.21 K) was 1838 ± 10 kg/m3. It also gave a mass density (996.6 K) of 1839 ± 10 kg/m3, a mass density (996.7 K) of 1837 ± 10 kg/m3 and a mass density (996.81 K) of 1836 ± 10 kg/m3. The mass density (996.88 K) was 1839 ± 10 kg/m3, the mass density (997.13 K) was 1836 ± 10 kg/m3 and the mass density (997.4 K) was 1836 ± 10 kg/m3. The mass density (997.41 K) was 1838 ± 10 kg/m3, the mass density (997.63 K) was 1838 ± 10 kg/m3 and the mass density (997.84 K) was 1837 ± 10 kg/m3. It also gave a mass density (997.92 K) of 1836 ± 10 kg/m3, a mass density (997.99 K) of 1836 ± 10 kg/m3 and a mass density (998.24 K) of 1835 ± 11 kg/m3. For the same compound, the mass density (998.66 K) was 1837 ± 10 kg/m3, the mass density (998.67 K) was 1837 ± 11 kg/m3 and the mass density (998.83 K) was 1835 ± 11 kg/m3. It also gave a mass density (999.09 K) of 1836 ± 11 kg/m3, a mass density (999.14 K) of 1836 ± 11 kg/m3 and a mass density (999.24 K) of 1836 ± 10 kg/m3. It also gave a mass density (999.27 K) of 1835 ± 10 kg/m3, a mass density (999.3 K) of 1837 ± 10 kg/m3 and a mass density (999.38 K) of 1837 ± 10 kg/m3. The mass density (999.39 K) was 1835 ± 10 kg/m3, the mass density (999.51 K) was 1836 ± 10 kg/m3 and the mass density (999.7 K) was 1834 ± 10 kg/m3. The mass density (1000.2 K) was 1834 ± 10 kg/m3, the mass density (1000.5 K) was 1835 ± 10 kg/m3 and the mass density (1000.8 K) was 1833 ± 11 kg/m3. The mass density (1000.9 K) was 1834 ± 10 kg/m3, the mass density (1001.1 K) was 1835 ± 11 kg/m3 and the mass density (1001.3 K) was 1834 ± 11 kg/m3. It also gave a mass density (1001.4 K) of 1833 ± 11 kg/m3, a mass density (1001.5 K) of 1834 ± 11 kg/m3 and a mass density (1001.6 K) of 1833 ± 11 kg/m3. For the same compound, the mass density (1001.7 K) was 1834 ± 11 kg/m3, the mass density (1002.2 K) was 1832 ± 11 kg/m3 and 1833 ± 10 kg/m3 and the mass density (1002.4 K) was 1833 ± 11 kg/m3. The mass density (1002.7 K) was 1833 ± 11 kg/m3, the mass density (1002.9 K) was 1832 ± 11 kg/m3 and 1832 ± 10 kg/m3 and the mass density (1003.4 K) was 1832 ± 10 kg/m3 and 1832 ± 11 kg/m3. For the same compound, the mass density (1003.5 K) was 1831 ± 11 kg/m3, the mass density (1003.7 K) was 1832 ± 11 kg/m3 and the mass density (1004.2 K) was 1831 ± 11 kg/m3. For the same compound, the mass density (1004.3 K) was 1831 ± 10 kg/m3 and 1830 ± 10 kg/m3, the mass density (1004.8 K) was 1831 ± 11 kg/m3 and 1830 ± 11 kg/m3 and the mass density (1005 K) was 1831 ± 10 kg/m3. For the same compound, the mass density (1005.1 K) was 1831 ± 11 kg/m3 and 1830 ± 11 kg/m3, the mass density (1005.6 K) was 1830 ± 11 kg/m3 and the mass density (1005.7 K) was 1830 ± 11 kg/m3. The mass density (1006 K) was 1829 ± 10 kg/m3, the mass density (1006.3 K) was 1830 ± 10 kg/m3 and the mass density (1006.4 K) was 1830 ± 10 kg/m3. For the same compound, the mass density (1006.5 K) was 1830 ± 11 kg/m3 and 1829 ± 11 kg/m3, the mass density (1006.9 K) was 1829 ± 10 kg/m3 and 1827 ± 10 kg/m3 and the mass density (1007 K) was 1829 ± 11 kg/m3. For the same compound, the mass density (1007.1 K) was 1828 ± 11 kg/m3, the mass density (1007.3 K) was 1828 ± 11 kg/m3 and the mass density (1007.4 K) was 1828 ± 11 kg/m3 and 1829 ± 11 kg/m3. It also gave a mass density (1007.7 K) of 1827 ± 11 kg/m3, a mass density (1007.9 K) of 1827 ± 11 kg/m3 and a mass density (1008 K) of 1827 ± 11 kg/m3. It also gave a mass density (1008.2 K) of 1827 ± 11 kg/m3, a mass density (1008.3 K) of 1828 ± 11 kg/m3 and a mass density (1008.5 K) of 1827 ± 11 kg/m3. The mass density (1008.8 K) was 1827 ± 11 kg/m3, the mass density (1009 K) was 1827 ± 11 kg/m3 and the mass density (1009.2 K) was 1827 ± 11 kg/m3. It also gave a mass density (1009.4 K) of 1827 ± 11 kg/m3, a mass density (1009.6 K) of 1826 ± 11 kg/m3 and a mass density (1009.8 K) of 1826 ± 11 kg/m3. For the same compound, the mass density (1010 K) was 1825 ± 11 kg/m3, the mass density (1010.1 K) was 1825 ± 11 kg/m3 and the mass density (1010.3 K) was 1825 ± 10 kg/m3. For the same compound, the mass density (1010.7 K) was 1825 ± 11 kg/m3, the mass density (1010.9 K) was 1825 ± 11 kg/m3 and the mass density (1011 K) was 1825 ± 11 kg/m3. The mass density (1011.1 K) was 1825 ± 11 kg/m3, the mass density (1011.2 K) was 1825 ± 11 kg/m3 and the mass density (1011.3 K) was 1824 ± 11 kg/m3. For the same compound, the mass density (1011.6 K) was 1823 ± 10 kg/m3, the mass density (1011.7 K) was 1824 ± 11 kg/m3 and the mass density (1012 K) was 1824 ± 11 kg/m3. For the same compound, the mass density (1012.2 K) was 1824 ± 11 kg/m3, the mass density (1012.4 K) was 1824 ± 11 kg/m3 and the mass density (1012.5 K) was 1824 ± 11 kg/m3. For the same compound, the mass density (1012.6 K) was 1823 ± 11 kg/m3, the mass density (1012.9 K) was 1824 ± 10 kg/m3 and the mass density (1013.1 K) was 1822 ± 10 kg/m3. It also gave a mass density (1013.4 K) of 1823 ± 11 kg/m3.
